Literature values as cited in patent US20060024360A1, “Stable injectable composition of alpha tocopheryl succinate, analogues and salts thereof” (SD Pharmaceuticals, Inc., priority 2004, published 2006).
Structures can show the parent of a compound that is named as a salt.

Legend:
[1] = test system: mouse cancer line (C1271)
malignant mesothelioma = details: immunocompromised mice
melanoma = details: mice
[2] = test system: color cancer liver metastases; details: in vivo
[3] = test system: human gastric carcinoma cell; details: human cells

Structure (SMILES) | induction of apoptosis [1] | also measured
Cc1c(C)c2c(c(C)c1O)CC[C@@](C)(CCC[C@H](C)CCC[C@H](C)CCCC(C)C)O2 (racemic) [alpha-tocopherol, (±)-(2RS,4′RS,8′RS)-2,5,7,8-tetramethyl-2-(4′,8′, 12′-trimethyltridecyl)-6-chromanol] | not apoptogenic | –
CC(=O)Oc1c(C)c(C)c2c(c1C)CCC(C)(CCC[C@H](C)CCC[C@H](C)CCCC(C)C)O2 (stereo partly drawn) [alpha-tocopheryl acetate] | not apoptogenic | –
Cc1c(C)c2c(c(C)c1OC(=O)CC(=O)O)CCC(C)(CCCC(C)CCCC(C)CCCC(C)C)O2 (stereo not drawn) [alpha-tocopheryl malonate, Alpha-tocopheryl malonate] | induce apoptosis | –
Cc1c(C)c2c(c(C)c1OC(=O)c1cccnc1)CC[C@@](C)(CCC[C@H](C)CCC[C@H](C)CCCC(C)C)O2 [alpha-tocopheryl nicotinate] | not apoptogenic | –
Cc1c(C)c2c(c(C)c1OC(=O)C(=O)O)CCC(C)(CCCC(C)CCCC(C)CCCC(C)C)O2 (stereo not drawn) [alpha-tocopheryl oxalate, Alpha-tocopheryl oxalate] | induce apoptosis | relative potency among alpha-tocopheryl derivatives tested [1]: most potent
Cc1c(C)c2c(c(C)c1OC(=O)CCCCCC(=O)O)CCC(C)(CCCC(C)CCCC(C)CCCC(C)C)O2 (stereo not drawn) [alpha-tocopheryl pimelate, Alpha-tocopheryl pimelate] | not apoptogenic | –
CCOC(=O)CCC(=O)Oc1c(C)c(C)c2c(c1C)CCC(C)(CCCC(C)CCCC(C)CCCC(C)C)O2 (stereo not drawn) [alpha-tocopheryl succinate ethyl ester] | not apoptogenic | –
Cc1c(C)c2c(c(C)c1OC(=O)CCC(=O)O)CC[C@@](C)(CCC[C@H](C)CCC[C@H](C)CCCC(C)C)O2 [alpha-tocopheryl succinate] | induce apoptosis | malignant mesothelioma (malignant mesothelioma): suppressed malignant mesothelioma; melanoma growth (melanoma): inhibited melanoma growth; liver metastases [2]: inhibiting color cancer liver metastases; gastric carcinoma cell growth [3]: inhibits human gastric carcinoma cell growth
Cc1c(O)cc2c(c1C)O[C@](C)(CCC[C@H](C)CCC[C@H](C)CCCC(C)C)CC2 [gamma-tocopherol, Gamma-tocopherol] | not apoptogenic | –
